US20220339261A1, “ORAL PHARMACEUTICAL COMPOSITION INCLUDING TERIPARATIDE AND METHOD FOR PREPARING SAME” (ICURE BNP CO., LTD., priority 2019, published 2022)

Columns and labels:
[1] = Parallel artificial membrane permeability assay (PAMPA), effective permeability of teriparatide; assay type: in vitro ADME; conditions: PBS pH 6.8, 200 μg/mL as teriparatide, room temperature, 5 hours, mean ± SD (n = 4)
Protocol: Effective permeability (Pe) through the artificial intestinal membrane of Examples 1 and Comparative Examples 1 to 7 prepared above was evaluated using the parallel artificial membrane permeability assay (PAMPA), which is an artificial intestinal membrane permeability evaluation system. First, the samples of Example 1 and Comparative Examples 1 to 7 were dissolved in phosphate buffer (PBS, pH 6.8) to a concentration of 200 μg/mL as teriparatide, and then 200 μL each was added to the donor part of the PAMPA system, and 300 μL of phosphate buffer (PBS, pH 6.8) was filled in the receiving part of the PAMPA system. […] Then, the solution of each well of the receiving part and the donor part was filtered through a membrane filter having a pore diameter of 0.45 μm, and then the concentration of teriparatide permeated through the artificial intestinal membrane was analyzed using the HPLC system under the following conditions.
50 μL of each sample was injected into the HPLC system, and acetonitrile (B) containing 0.1% (w/v) trifluoroacetic acid (TFA) aqueous solution (A) and 0.1% (w/v) TFA as mobile phases were separated by linearly changing the composition of mobile phase B from 51% to 76% for 25 minutes at a flow rate of 1.0 mL/min. Teriparatide was measured at 220 nm, and the effective transmittance (Pe) through the artificial intestinal membrane was calculated by Formula 1 below. […]

[2] = Apparent permeability through Caco-2 cell monolayer (Transwell); assay type: in vitro ADME; conditions: Caco-2 monolayer, 200 μM as teriparatide in HBSS, 37° C., up to 5 hours; mean ± SD (n = 4); read-out: Apparent transmittance (Papp)
Protocol: The apparent permeability of the complexes prepared as in Example 1 and Comparative Examples 1 to 7 to the intestinal cell membrane, Caco-2 cell membrane, was evaluated as follows. After Caco-2 cells were treated at a concentration of 1×10^5 cells/mL in 24-well Transwell, respectively, and after culturing the cells for 14 to 16 days, a cell monolayer of the electrical resistance (TEER) value through the Caco-2 cell membrane was >350 Ω·cm^2 was used for the experiment. First, the medium was removed from the Transwell, and then the donor part and receiving part were filled with HBSS and cultured at 37° C. for 20 minutes, then the TEER value was measured again, and then HBSS was removed. […] At 0.5, 1, 2, 3, 4, and 5 hours, 100 μL samples were collected from the receiving part, filtered using a membrane filter (pore 0.45 μm, PVDF), and the concentration of teriparatide permeated through the intestinal cell membrane was analyzed by HPLC under the conditions mentioned in Experimental Example 1. Apparent intestinal cell membrane permeability (Papp) was calculated using Formula 2 below, and the results are shown in Table 3. […]

[3] = Rat bioavailability / pharmacokinetics, plasma teriparatide by ELISA; conditions: for AUCinf / AUClast: mean ± SD (n = 4)
Protocol: After anesthesia by intraperitoneal injection of ketamine (45 mg/kg) and xylazine (5 mg/kg) to female Sprague-Dawley rats (200-250 g, 6-7 weeks old), the abdomen of the rat was cut to take out the small intestine, and Examples 1 and 4 and Comparative Examples 1 and 2 prepared above were dispersed in purified water, and then injected into a proximal jejunum in an amount corresponding to 100 μg/kg as teriparatide by 400 μL. In addition, in order to evaluate the relative bioavailability, 150 μL of teriparatide solution dissolved in physiological saline was subcutaneously injected at an amount corresponding to 20 μg/kg as teriparatide.
After drug administration, blood samples were collected 150 μL at regular time intervals and mixed with 3.8% aqueous sodium citrate solution of 50 μL. Thereafter, the blood sample was centrifuged for 15 minutes at 2,500×g, at 4° C., and plasma was collected and stored at −70° C. The teriparatide concentration in plasma was measured at a wavelength of 620 nm using the human PTH (1-34) ELISA kit (ALPCO Diagnostics, USA). The pharmacokinetic parameters are estimated through the non-compartment method using WinNonlin S Software (ver. 5.3; Pharsight Corporation, USA) and are shown in Table 6 and FIG. 1.

[4] = dosing in jejunum, 0.1 mg/kg as teriparatide
[5] = female, Sprague-Dawley, plasma, sc, 0.02 mg/kg
[6] = subcutaneous injection, 0.02 mg/kg as teriparatide

Compound | Effective transmittance (Pe) [1] | Papp [2] [×10⁻⁶ cm/s] | bioavailability ([3]; 0.1 mg/kg) [%] | AUCinf [3, 4] [ng ·) sh/mL] | AUClast [3, 4] [ng ·) sh/mL] | AUC(0-t) ([3]; in vivo, 0.1 mg/kg) [ng·h/mL] | Cmax ([3]; in vivo, 0.1 mg/kg) [ng/mL] | Tmax ([3]; in vivo, 0.1 mg/kg) [min] | Cmax [3, 5] [ng/mL] | Tmax [3, 5] [min] | bioavailability [3, 5] [%] | AUCinf [3, 6] [ng ·) sh/mL] | AUClast [3, 6] [ng ·) sh/mL]
CC[C@H](C)[C@H](NC(=O)[C@H](CCC(=O)O)NC(=O)[C@H](CO)NC(=O)[C@@H](NC(=O)[C@@H](N)CO)C(C)C)C(=O)N[C@@H](CCC(N)=O)C(=O)N[C@@H](CC(C)C)C(=O)N[C@@H](CCSC)C(=O)N[C@@H](Cc1cnc[nH]1)C(=O)N[C@@H](CC(N)=O)C(=O)N[C@@H](CC(C)C)C(=O)NCC(=O)N[C@@H](CCCCN)C(=O)N[C@@H](Cc1cnc[nH]1)C(=O)N[C@@H](CC(C)C)C(=O)N[C@@H](CC(N)=O)C(=O)N[C@@H](CO)C(=O)N[C@@H](CCSC)C(=O)N[C@@H](CCC(=O)O)C(=O)N[C@@H](CCCN=C(N)N)C(=O)N[C@H](C(=O)N[C@@H](CCC(=O)O)C(=O)N[C@@H](Cc1c[nH]c2ccccc12)C(=O)N[C@@H](CC(C)C)C(=O)N[C@@H](CCCN=C(N)N)C(=O)N[C@@H](CCCCN)C(=O)N[C@@H](CCCCN)C(=O)N[C@@H](CC(C)C)C(=O)N[C@@H](CCC(N)=O)C(=O)N[C@@H](CC(=O)O)C(=O)N[C@H](C(=O)N[C@@H](Cc1cnc[nH]1)C(=O)N[C@@H](CC(N)=O)C(=O)N[C@@H](Cc1ccccc1)C(=O)O)C(C)C)C(C)C [compound 1] | 0.582 ± 0.132 ×10^−6 cm/s | 0.362 ± 0.045 | 0.81 ± 0.191 | 0.031 ± 0.007 | 0.030 ± 0.007 | 0.03 ± 0.007 | 0.041 ± 0.01 | 19.8 ± 8.4 | – | – | – | – | –
CC[C@H](C)[C@H](NC(=O)[C@H](CCC(=O)O)NC(=O)[C@H](CO)NC(=O)[C@@H](NC(=O)[C@@H](N)CO)C(C)C)C(=O)N[C@@H](CCC(N)=O)C(=O)N[C@@H](CC(C)C)C(=O)N[C@@H](CCSC)C(=O)N[C@@H](Cc1cnc[nH]1)C(=O)N[C@@H](CC(N)=O)C(=O)N[C@@H](CC(C)C)C(=O)NCC(=O)N[C@@H](CCCCN)C(=O)N[C@@H](Cc1cnc[nH]1)C(=O)N[C@@H](CC(C)C)C(=O)N[C@@H](CC(N)=O)C(=O)N[C@@H](CO)C(=O)N[C@@H](CCSC)C(=O)N[C@@H](CCC(=O)O)C(=O)N[C@@H](CCCN=C(N)N)C(=O)N[C@H](C(=O)N[C@@H](CCC(=O)O)C(=O)N[C@@H](Cc1c[nH]c2ccccc12)C(=O)N[C@@H](CC(C)C)C(=O)N[C@@H](CCCN=C(N)N)C(=O)N[C@@H](CCCCN)C(=O)N[C@@H](CCCCN)C(=O)N[C@@H](CC(C)C)C(=O)N[C@@H](CCC(N)=O)C(=O)N[C@@H](CC(=O)O)C(=O)N[C@H](C(=O)N[C@@H](Cc1cnc[nH]1)C(=O)N[C@@H](CC(N)=O)C(=O)N[C@@H](Cc1ccccc1)C(=O)O)C(C)C)C(C)C [Teriparatide] | – | – | – | – | – | – | – | – | 0.805 ± 0.209 | 15 | 100 | 0.765 ± 0.199 | 0.734 ± 0.191
